Data taken from patent US12336536B2, “Method for controlling herbicide resistant or tolerant weeds” (BASF Agro B.V., priority 2015, dated 2025).

Legend:
[1] = tested on: blackgrass (ALOMY) biotypes; assay: Greenhouse test, control of resistant weed biotypes, post-emergence, blackgrass; format: in vivo, Alopecurus myosuroides; details: for Herbicidal activity: post-emergence, scale 0 to 100
Method: The herbicidal activity of herbicide A on resistant weed biotypes was tested in comparison with certain commercial herbicides by the following greenhouse experiments:
The culture containers used were plastic flowerpots containing loamy sand with approximately 3.0% of humus as the substrate. The seeds of the test plants were sown separately for each species. Six blackgrass (ALOMY) (10-103, 10-170, 09-591, 10-123, 11-215, 11-146) and six ryeg rass (LOLMU) (12-166, 12-143, 12-165, 12-307, 13-304, 13-313) biotypes with varying degrees of resistance towards a range of modes of action according to the HRAC (Herbicide Resistance Action Committee) classification on mode of action 2010 (see e.g http://www.hracglobal.com/pages/classificationofherbicidesiteofaction.aspx) were tested alongside two non-resistant biotypes (14-116 and 13-243), see Tables 1 and 2 below.
For the post-emergence treatment, the test plants were first grown to a height of 3 to 15 cm, depending on the plant habit, and only then treated with the active ingredients which had been suspended or emulsified in water. For this purpose, the test plants were either sown directly and grown in the same containers, or they were first grown separately as seedlings and transplanted into the test containers a few days prior to treatment.
Depending on the species, the plants were kept at 10-25° C. or 20-35° C. The test period extended over 2 to 4 weeks. During this time, the plants were tended, and their response to the individual treatments was evaluated.
The racemic mixture (±)-2-exo-(2-Methylbenzyloxy)-1-methyl-4-isopropyl-7-oxabicyclo[2.2.1]heptane was used as herbicide A and formulated as emulsifiable concentrates with an active ingredient concentration of 50 g/l, 100 g/l or 750 g/l respectively.
Flufenacet was used as a commercial concentrated solution formulation having an active ingredient concentration of 500 g/l (Cadou).
Imazamox was used as a water dispersible granule (70% WG).
Evaluation of the herbicidal activity was carried out using a scale from 0 to 100. 100 means complete destruction of at least the aerial moieties, and 0 means no damage, or normal course of growth. A good herbicidal activity is given at values of at least 70 and a very good herbicidal activity is given at values of at least 85.

[2] = tested on: BRSNW; assay: Greenhouse test, solo and combination, post-emergence, 20 DAT; format: in vivo, Brassica napus
Method: (§1) The test plants have been seeded, separately for each species, in plastic containers in sandy loamy soil containing 5% of organic matter.
(§2) For the post-emergence treatment, the plants were first grown to the 2 leaf station (GS 12) and applied at GS 12-19 depending on the species. The herbicidal compositions were suspended or emulsified in water as distribution medium and sprayed using finely distributing nozzles.
(§3) The plants have been cultivated due to their individual requirements at 10-25° C. and 20-35° C. The plants were irrigated due to their necessity.
(§4) The racemic mixture (±)-2-exo-(2-Methylbenzyloxy)-1-methyl-4-isopropyl-7-oxabicyclo[2.2.1]heptane was used as herbicide A and formulated as emulsifiable concentrate having an active ingredient concentration of 750 g/l.
(§5) Cyhalofop-butyl (herbicide B.5) was used as an emulsifiable concentrate (EC) formulation having an active ingredient concentration of 200 g/l.
(§6) Metsulfuron-methyl (herbicide B.53) was used as a water soluble granule (SG) formulation having an active ingredient concentration of 20%.
(§7) Bispyribac-sodium (herbicide B.23) was used as a soluble concentrate (SL) formulation having an active ingredient concentration of 408 g/l.
(§8) Quizalofop-P-ethyl (herbicide B.217) was used as a suspension concentrate (SC) formulation having an active ingredient concentration of 106 g/l.
(§9) In the following experiments, the herbicidal activity for the individual herbicide compounds (solo and mixture applications) was assessed 20 days after treatment (DAT).
(§10) The evaluation for the damage on undesired weeds caused by the chemical compositions was carried out using a scale from 0 to 100%, compared to the untreated control plants. Here, 0 means no damage and 100 means complete destruction of the plants.
(§11) The plants used in the greenhouse experiments belonged to the following species:
(§12) E=X+Y−(X·Y/100) • where X=effect in percent using herbicide A at an application rate a; • Y=effect in percent using herbicide B at application rate b; • E=expected effect (in %) of herbicide A+herbicide B at application rates a+b.
(§13) The value E corresponds to the effect (plant damage or injury) which is to be expected if the activity of the individual compounds is additive. If the observed effect is higher than the value E calculated according to the Colby equation, a synergistic effect is present.
(§14) Tables 3 to 6 below relate the herbicidal activity, in greenhouse trials, of the individual actives and the combination applied at different rates and ratios, in post-emergence application at 20 days after treatment (DAT).

[3] = tested on: ALOMY; assay: as above; format: in vivo, Alopecurus myosuroides
Method: as §1, §2, §3, §4, §5, §6, §7, §8, §9, §10, §11, §12, §13, §14

[4] = tested on: LOLRI; assay: as above; format: in vivo, Lolium rigidum
Method: as §1, §2, §3, §4, §5, §6, §7, §8, §9, §10, §11, §12, §13, §14

[5] = tested on: BROST; assay: as above; format: in vivo, Bromus sterilis
Method: as §1, §2, §3, §4, §5, §6, §7, §8, §9, §10, §11, §12, §13, §14

[6] = tested on: MATIN; assay: as above; format: in vivo, Matricaria inodora
Method: as §1, §2, §3, §4, §5, §6, §7, §8, §9, §10, §11, §12, §13, §14

[7] = tested on: PAPRH; assay: as above; format: in vivo, Papaver rhoeas
Method: as §1, §2, §3, §4, §5, §6, §7, §8, §9, §10, §11, §12, §13, §14

(±)-2-exo-(2-Methylbenzyloxy)-1-methyl-4-isopropyl-7-oxabicyclo[2.2.1]heptane [Herbicide A]
Herbicidal activity ([1]; BT 09-591, resistant HRAC group A, B, K, 125 g ai/ha): 80 | Herbicidal activity ([1]; BT 09-591, resistant HRAC group A, B, K, 250 g ai/ha): 95 | Herbicidal activity ([1]; BT 10-103, resistant HRAC group A, B, K, 125 g ai/ha): 80 | Herbicidal activity ([1]; BT 10-103, resistant HRAC group A, B, K, 250 g ai/ha): 95 | Herbicidal activity ([1]; BT 10-123, resistant HRAC group A, B, C, 125 g ai/ha): 85 | Herbicidal activity ([1]; BT 10-123, resistant HRAC group A, B, C, 250 g ai/ha): 90 | Herbicidal activity ([1]; BT 10-170, resistant HRAC group A, B, K, 125 g ai/ha): 85 | Herbicidal activity ([1]; BT 10-170, resistant HRAC group A, B, K, 250 g ai/ha): 90 | Herbicidal activity ([1]; BT 11-146, resistant HRAC group K, 125 g ai/ha): 90 | Herbicidal activity ([1]; BT 11-146, resistant HRAC group K, 250 g ai/ha): 95 | Herbicidal activity ([1]; BT 11-215, resistant HRAC group A, B, C, E, K, 125 g ai/ha): 80 | Herbicidal activity ([1]; BT 11-215, resistant HRAC group A, B, C, E, K, 250 g ai/ha): 95 | Herbicidal activity ([1]; BT 14-116, Sensitive standard, 125 g ai/ha): 65 | Herbicidal activity ([1]; BT 14-116, Sensitive standard, 250 g ai/ha): 100 | herbicidal activity (summary in words) ([1]; post-emergence treatment, various biotypes of blackgrass (ALOMY) with varying degrees of resistance): very good herbicidal activity (a very good herbicidal activity is given at values of at least 85) | Herbicidal activity ([2]; solo application 62.5 g ai/ha): 0% | Herbicidal activity ([2]; solo application 125 g ai/ha): 0% | Herbicidal activity ([2]; solo application 500 g ai/ha): 0% | Herbicidal activity ([3]; solo application 62.5 g ai/ha): 30% | Herbicidal activity ([3]; solo application 125 g ai/ha): 55% | Herbicidal activity ([3]; solo application 250 g ai/ha): 70% | Herbicidal activity ([3]; solo application 500 g ai/ha): 80% | Herbicidal activity ([4]; solo application 62.5 g ai/ha): 15% | Herbicidal activity ([4]; solo application 125 g ai/ha): 30% | Herbicidal activity ([4]; solo application 250 g ai/ha): 50% | Herbicidal activity ([5]; solo application 62.5 g ai/ha): 0% | Herbicidal activity ([5]; solo application 125 g ai/ha): 0% | Herbicidal activity ([5]; solo application 250 g ai/ha): 15% | Herbicidal activity ([5]; solo application 500 g ai/ha): 25% | Herbicidal activity ([6]; solo application 62.5 g ai/ha): 0% | Herbicidal activity ([6]; solo application 125 g ai/ha): 0% | Herbicidal activity ([6]; solo application 250 g ai/ha): 0% | Herbicidal activity ([6]; solo application 500 g ai/ha): 25% | Herbicidal activity ([7]; solo application 62.5 g ai/ha): 0% | Herbicidal activity ([7]; solo application 250 g ai/ha): 40% | Herbicidal activity ([7]; solo application 500 g ai/ha): 60%
